Experiments:
[1] = Metabolism in human liver microsomes; type: in vitro ADME; details: pH 7.4, human microsomes 0.5 μM cytochrome P450, substrate 1 μM, 37° C., 1 hour, read-out: t 1/2 (human microsomal)
Description: (§1) A. Metabolism in Human Liver Microsomes and Supermix™ The metabolic vulnerability of the compounds of the invention in microsomes and Supermix™ may be assayed as follows. The microsomal fraction is isolated from several human livers and the P450 content determined. Supermix™ is obtained from Gentest. Human microsomes (0.5 μM cytochrome P450) and Supermix™ (0.05 μM cytochrome P450) are added to an incubation media containing 50 mM phosphate buffer (pH7.4), 5 mM MgCl2, 1 mM NADP and an NADPH generating system consisting of isocitrate and isocitrate dehydrogenase. The substrate concentration is 1 μM and incubations are carried out at 37° C. for 1 hour. Samples are taken at time points throughout this period and analysed using hplc-ms-ms assay.

[2] = biological target: T1, purified recombinant HIV-1 reverse transcriptase (Human immunodeficiency virus type 1 group M subtype B, UniProt P04585); assay: Inhibition of HIV-1 reverse transcriptase enzyme; type: biochemical
T1 construct: purified recombinant HIV-1 reverse transcriptase (RT, EC, 2.7.7.49); made in house; host or cells: Escherichia coli
Source text: The activity of the compounds of the invention as reverse transcriptase inhibitors may be measured using the following assay.
Inhibition of HIV-1 Reverse Transcriptase Enzyme
Using purified recombinant HIV-1 reverse transcriptase (RT, EC, 2.7.7.49) obtained by expression in Escherichia Coli, a 96-well plate assay system is established for assaying a large number of samples using either the Poly(rA)-oligo(dT) Reverse Transcriptase [3H]-SPA enzyme assay system (Amersham NK9020) or the [3H]-flashplate enzyme assay system (NEN-SMP 103) and following the manufacturer's recommendations. The compounds are dissolved in 100% DMSO and diluted with the appropriate buffer to a 5% final DMSO concentration. The inhibitory activity is expressed in percent inhibition relative to DMSO control.

[3] = Metabolism in human hepatocytes; type: in vitro ADME; details: cryopreserved human hepatocytes 1 million cells/ml; substrate 3 μM; 37° C., 3 hours
Description: B. Metabolism in Human Hepatocytes.
The metabolic vulnerability of the compounds of the invention in human hepatocytes may be assayed as follows.
Cryopreserved human hepatocytes are obtained from In vitro Technologies, Inc. The hepatocytes are thawed and suspended at 1 million cells/ml in 50% Krebs-Heinsleit buffer: 50% Williams E media containing 10% foetal bovine serum. The substrate concentration is 3 μM and incubations are carried out at 37° C. for 3 hours. Samples are taken at time points throughout this period and analysed using hplc-ms-ms assay.

Metabolism in Supermix = type: in vitro ADME; details: human, Supermix (Gentest), pH 7.4; Supermix 0.05 μM cytochrome P450; substrate 1 μM; 37° C., 1 hour; read-out: t 1/2 (Supermix)
Description: as §1

## Cc1c(Oc2cc(C#N)cc(C#N)c2)c(C2CC2)nn1CCO [Example 1, 5-{[3-Cyclopropyl-1-(2-hydroxyethyl)-5-methyl-1H-pyrazol-4-yl]oxy}isophthalonitrile]
[1]
  half-life at 1 μM: > 2 h
[2]
  IC50: 295 nM
[3]
  unbound hepatocyte clearance: < 9 mL/min/kg
Metabolism in Supermix
  half-life at 1 μM: > 2 h

— US20040132793A1, “Pyrazole derivatives” (Pfizer Inc., priority 2002, published 2004)
